Here are results for 26 molecules from US10053461B2 (Hoffmann-La Roche Inc., priority 2015, dated 2018).

This assay deals with HBsAg. Kind of assay: microbe, parasite or virus in culture. The note with it: Hepatitis B virus, HepG2.2.15.
Procedure: HepG2.2.15 cells (Acs et al. Proc Natl Acad Sci USA, 84, (1987), 4641-4), a constitutively HBV-expressing cell line were cultured in DMEM+Glutamax-I medium (Invitrogen, Carlsbad, Calif., USA), supplemented with 10% fetal bovine serum (Invitrogen) and G418 (Invitrogen) at a final concentration of 200 mg/L and maintained in 5% CO2 at 37° C.
HepG2.2.15 cells were seeded in duplicate into white, 96-well plates at 1.5×10^4 cells/well. The cells were treated with a three-fold serial dilution series of the compounds in DMSO. The final DMSO concentration in all wells was 1% and DMSO was used as no drug control.
The HBsAg chemiluminescence immunoassay (CLIA) kit (Autobio Diagnostics Co., Zhengzhou, China, Catalog number: CL0310-2) was used to measure the levels of secreted HBV antigens semi-quantitatively. For the detection 50 μL/well culture supernatant was used and HBsAg was quantified using HBsAg chemiluminescence immunoassay (CLIA) kit (Autobio Diagnostics Co., Zhengzhou, China, Catalog number: CL0310-2), 50 μL of the supernatant was transferred to the CLIA assay plate and 50 μL of enzyme conjugate reagent was added into each well. The plates were sealed and gently agitated for 1 hour at room temperature. The supernatant-enzyme-mixture was discarded and wells were washed 6 times with 300 μL of PBS. The residual liquid was removed by plating the CLIA plate right side down on absorbent tissue paper. 25 μL of substrates A and B were added to each well. Luminance was measured using a luminometer (Mithras LB 940 Multimode Microplate Reader) after 10 minutes incubation. Dose-response curves were generated and the IC50 value was extrapolated by using the E-WorkBook Suite (ID Business Solutions Ltd., Guildford, UK). The IC50 was defined as the compound concentration (or conditioned media log dilution) at which HBsAg secretion was reduced by 50% compared to the no drug control.
The compounds of the present invention were tested for their activity to inhibit HBsAg as described herein.
With `COCCCOc1cc2c(cc1OC)-c1cc(=O)c(C(=O)O)cn1[C@H]1[C@@H]2CCC1(C)C` (racemic) [Example 2, cis-10-methoxy-11-(3-methoxypropoxy)-3,3-dimethyl-7-oxo-1,2,3,3a,7,12b-hexahydrocyclopenta[c]pyrido[2,1-a]isoquinoline-6-carboxylic acid], the midpoint of inhibition, the IC50, lay at 1 nM.

Regarding `COc1cc2c(cc1OCc1ccccc1)[C@H]1CCCC[C@@H]1n1cc(C(=O)O)c(=O)cc1-2` (racemic) [Example 31, Trans-12-benzyloxy-11-methoxy-8-oxo-1,2,3,4,4a,13b-hexahydropyrido[1,2-f]phenanthridine-7-carboxylic acid], the IC50 (as a rule, the point on the concentration scale where inhibition reaches its midpoint) is 120 nM.

`COCCCOc1cc2c(cc1OC)-c1cc(=O)c(C(=O)O)cn1[C@@H]1CCSC[C@@H]21` (racemic) [Example 35, Trans-11-methoxy-12-(3-methoxypropoxy)-8-oxo-1,3,4,4a,8,13b-hexahydropyrido[2,1-a]thiopyrano[4,3-c]isoquinoline-7-carboxylic acid] showed an IC50 of 110 nM.

Consider `COCCCOc1cc2c(cc1OC)-c1cc(=O)c(C(=O)O)cn1[C@@H]1CCSC[C@H]21` (racemic) [Example 36, cis-11-methoxy-12-(3-methoxypropoxy)-8-oxo-1,3,4,4a,8,13b-hexahydropyrido[2,1-a]thiopyrano[4,3-c]isoquinoline-7-carboxylic acid], for which it took 28 nM to reach half-maximal inhibition (IC50). This IC50 lies about 3.9-fold lower than the previous one.

The molecule `COCCCOc1cc2c(cc1OC)-c1cc(=O)c(C(=O)O)cn1[C@H]1[C@H]2CCC1(C)C` (relative stereo) [Example 1, Trans-10-methoxy-11-(3-methoxypropoxy)-3,3-dimethyl-7-oxo-1,2,3,3a,7,12b-hexahydrocyclopenta[c]pyrido[2,1-a]isoquinoline-6-carboxylic acid] returned an IC50 of 10 nM.

In the case of `COc1cc2c(cc1O)[C@H]1CCC(C)(C)[C@H]1n1cc(C(=O)O)c(=O)cc1-2` (relative stereo) [Example 6, Cis-11-hydroxy-10-methoxy-3,3-dimethyl-7-oxo-1,2,3,3a,7,12b-hexahydrocyclopenta[c]pyrido[2,1-a]isoquinoline-6-carboxylic acid], the IC50 was determined as 84 nM.

As to `COc1cc2c(cc1OC)[C@H]1CCC(C)(C)[C@H]1n1cc(C(=O)O)c(=O)cc1-2` (relative stereo) [Example 7, Cis-10,11-dimethoxy-3,3-dimethyl-7-oxo-1,2,3,3a,7,12b-hexahydrocyclopenta[c]pyrido[2,1-a]isoquinoline-6-carboxylic acid], the IC50 is 5 nM.

The molecule `COc1cc2c(cc1OCC(F)(F)F)[C@H]1CCC(C)(C)[C@H]1n1cc(C(=O)O)c(=O)cc1-2` (relative stereo) [Example 8, Cis-10-methoxy-3,3-dimethyl-7-oxo-11-(2,2,2-trifluoroethoxy)-1,2,3,3a,7,12b-hexahydrocyclopenta[c]pyrido[2,1-a]isoquinoline-6-carboxylic acid] gave an IC50 of 3 nM. Against the preceding molecule, the IC50 is about 1.7-fold lower.

`COc1cc2c(cc1OCC(C)C)[C@H]1CCC(C)(C)[C@H]1n1cc(C(=O)O)c(=O)cc1-2` (relative stereo) [Example 9, Cis-11-isobutoxy-10-methoxy-3,3-dimethyl-7-oxo-1,2,3,3a,7,12b-hexahydrocyclopenta[c]pyrido[2,1-a]isoquinoline-6-carboxylic acid]: 1 nM corresponded to half-maximal inhibition (IC50). Compared with the last molecule, the IC50 is about 3-fold lower.

`COc1cc2c(cc1OCC1CC1)[C@H]1CCC(C)(C)[C@H]1n1cc(C(=O)O)c(=O)cc1-2` (relative stereo) [Example 10, Cis-11-(cyclopropylmethoxy)-10-methoxy-3,3-dimethyl-7-oxo-1,2,3,3a,7,12b-hexahydrocyclopenta[c]pyrido[2,1-a]isoquinoline-6-carboxylic acid] had an IC50 of 1 nM. In other words, the single-digit nanomolar range.

Molecule `COCCOc1cc2c(cc1OC)-c1cc(=O)c(C(=O)O)cn1[C@H]1[C@@H]2CCC1(C)C` (relative stereo) [Example 11, Cis-10-methoxy-11-(2-methoxyethoxy)-3,3-dimethyl-7-oxo-1,2,3,3a,7,12b-hexahydrocyclopenta[c]pyrido[2,1-a]isoquinoline-6-carboxylic acid] had an IC50 of 4 nM.

`COc1cc2c(cc1OCCCC#N)[C@H]1CCC(C)(C)[C@H]1n1cc(C(=O)O)c(=O)cc1-2` (relative stereo) [Example 12, Cis-11-(3-cyanopropoxy)-10-methoxy-3,3-dimethyl-7-oxo-1,2,3,3a,7,12b-hexahydrocyclopenta[c]pyrido[2,1-a]isoquinoline-6-carboxylic acid]: the IC50 turned out to be 4 nM.

`COc1cc2c(cc1OCCCO)[C@H]1CCC(C)(C)[C@H]1n1cc(C(=O)O)c(=O)cc1-2` (relative stereo) [Example 13, Cis-11-(3-hydroxypropoxy)-10-methoxy-3,3-dimethyl-7-oxo-1,2,3,3a,7,12b-hexahydrocyclopenta[c]pyrido[2,1-a]isoquinoline-6-carboxylic acid] had an IC50 of 5 nM.

As for `COc1cc2c(cc1OCC(C)(C)CO)[C@H]1CCC(C)(C)[C@H]1n1cc(C(=O)O)c(=O)cc1-2` (relative stereo) [Example 14, Cis-11-(3-hydroxy-2,2-dimethylpropoxy)-10-methoxy-3,3-dimethyl-7-oxo-1,2,3,3a,7,12b-hexahydrocyclopenta[c]pyrido[2,1-a]isoquinoline-6-carboxylic acid], the IC50 stood at 3 nM. Compared with the last molecule, the IC50 is about 1.7-fold lower.

Turning to `COc1cc2c(cc1OCCCN1CCOCC1)[C@H]1CCC(C)(C)[C@H]1n1cc(C(=O)O)c(=O)cc1-2` (relative stereo) [Example 15, Cis-10-methoxy-3,3-dimethyl-11-(3-morpholinopropoxy)-7-oxo-1,2,3,3a,7,12b-hexahydrocyclopenta[c]pyrido[2,1-a]isoquinoline-6-carboxylic acid], the IC50 was 6 nM.

Take `COc1cc2c(cc1OCCCN1CCCC1)[C@H]1CCC(C)(C)[C@H]1n1cc(C(=O)O)c(=O)cc1-2` (relative stereo) [Example 16, Cis-10-methoxy-3,3-dimethyl-7-oxo-11-(3-(pyrrolidin-1-yl)propoxy)-1,2,3,3a,7,12b-hexahydrocyclopenta[c]pyrido[2,1-a]isoquinoline-6-carboxylic acid]: the half-inhibitory concentration (IC50) was 128 nM. Compared with the last molecule, the IC50 is about 21-fold higher.

`COc1cc2c(cc1OCCCN1CCCC1=O)[C@H]1CCC(C)(C)[C@H]1n1cc(C(=O)O)c(=O)cc1-2` (relative stereo) [Example 17, Cis-10-methoxy-3,3-dimethyl-7-oxo-11-(3-(2-oxopyrrolidin-1-yl)propoxy)-1,2,3,3a,7,12b-hexahydrocyclopenta[c]pyrido[2,1-a]isoquinoline-6-carboxylic acid] showed an IC50 of 25 nM.

`CCOC(=O)CCCOc1cc2c(cc1OC)-c1cc(=O)c(C(=O)O)cn1[C@H]1[C@@H]2CCC1(C)C` (relative stereo) [Example 18, Cis-11-(4-ethoxy-4-oxobutoxy)-10-methoxy-3,3-dimethyl-7-oxo-1,2,3,3a,7,12b-hexahydrocyclopenta[c]pyrido[2,1-a]isoquinoline-6-carboxylic acid] gave an IC50 of 10 nM.

The molecule `COc1cc2c(cc1OCCCC(=O)O)[C@H]1CCC(C)(C)[C@H]1n1cc(C(=O)O)c(=O)cc1-2` (relative stereo) [Example 19, Cis-11-(3-carboxypropoxy)-10-methoxy-3,3-dimethyl-7-oxo-1,2,3,3a,7,12b-hexahydrocyclopenta[c]pyrido[2,1-a]isoquinoline-6-carboxylic acid] showed an IC50 of 505 nM. Against the preceding molecule, the IC50 is about 50-fold higher.

As for `COc1cc2c(cc1OCCCSC)[C@H]1CCC(C)(C)[C@H]1n1cc(C(=O)O)c(=O)cc1-2` (relative stereo) [Example 20, Cis-10-methoxy-3,3-dimethyl-11-(3-(methylthio)propoxy)-7-oxo-1,2,3,3a,7,12b-hexahydrocyclopenta[c]pyrido[2,1-a]isoquinoline-6-carboxylic acid], the IC50 was found to be 2 nM.

For the molecule `COc1cc2c(cc1OCCCS(C)(=O)=O)[C@H]1CCC(C)(C)[C@H]1n1cc(C(=O)O)c(=O)cc1-2` (relative stereo) [Example 21, Cis-10-methoxy-3,3-dimethyl-11-(3-(methylsulfonyl)propoxy)-7-oxo-1,2,3,3a,7,12b-hexahydrocyclopenta[c]pyrido[2,1-a]isoquinoline-6-carboxylic acid], half-maximal inhibition (IC50) required 17 nM.

For the molecule `COc1cc2c(cc1OCCCCCCO)[C@H]1CCC(C)(C)[C@H]1n1cc(C(=O)O)c(=O)cc1-2` (relative stereo) [Example 22, Cis-11-((6-hydroxyhexyl)oxy)-10-methoxy-3,3-dimethyl-7-oxo-1,2,3,3a,7,12b-hexahydrocyclopenta[c]pyrido[2,1-a]isoquinoline-6-carboxylic acid], half-maximal inhibition (IC50) was put at 1 nM.

As to `COc1cc2c(cc1OCCCCCCNC(=O)OC(C)(C)C)[C@H]1CCC(C)(C)[C@H]1n1cc(C(=O)O)c(=O)cc1-2` (relative stereo) [Example 23, Cis-11-((6-((tert-butoxycarbonyl)amino)hexyl)oxy)-10-methoxy-3,3-dimethyl-7-oxo-1,2,3,3a,7,12b-hexahydrocyclopenta[c]pyrido[2,1-a]isoquinoline-6-carboxylic acid], the IC50 was 2 nM.

As to `COc1cc2c(cc1OCCCCCCN)[C@H]1CCC(C)(C)[C@H]1n1cc(C(=O)O)c(=O)cc1-2` (relative stereo) [Example 24, Cis-11-((6-aminohexyl)oxy)-10-methoxy-3,3-dimethyl-7-oxo-1,2,3,3a,7,12b-hexahydrocyclopenta[c]pyrido[2,1-a]isoquinoline-6-carboxylic acid], it took 20 nM to reach half-maximal inhibition (IC50).

Regarding `COc1cc2c(cc1OCCCCCCNC(C)=O)[C@H]1CCC(C)(C)[C@H]1n1cc(C(=O)O)c(=O)cc1-2` (relative stereo) [Example 25, Cis-11-((6-acetamidohexyl)oxy)-10-methoxy-3,3-dimethyl-7-oxo-1,2,3,3a,7,12b-hexahydrocyclopenta[c]pyrido[2,1-a]isoquinoline-6-carboxylic acid], the IC50 is 6 nM. This IC50 lies about 3.3-fold lower than the previous one.

Molecule `COc1cc2c(cc1OCCCCCCNS(C)(=O)=O)[C@H]1CCC(C)(C)[C@H]1n1cc(C(=O)O)c(=O)cc1-2` (relative stereo) [Example 26, Cis-10-methoxy-3,3-dimethyl-11-((6-(methylsulfonamido)hexyl)oxy)-7-oxo-1,2,3,3a,7,12b-hexahydrocyclopenta[c]pyrido[2,1-a]isoquinoline-6-carboxylic acid] came in with an IC50 of 2 nM. This IC50 lies about 3-fold lower than the previous one.
